Our source for the inhibition values is ChEMBL document CHEMBL5442219.

SMILES strings stand for the structures.

Holding throughout (settings): Compound concentration 10 µM
Test [1] concerns the target Beta-2 adrenergic receptor (Homo sapiens) (UniProt P07550).
In test [2] the target is Sigma intracellular receptor 2 (Homo sapiens) (UniProt Q5BJF2).
In test [3] the target is Histamine H1 receptor (Homo sapiens) (UniProt P35367).
Test [4] deals with T1, 5-hydroxytryptamine receptor 2C (Homo sapiens) (UniProt P28335).
T1 sequence (whole entry): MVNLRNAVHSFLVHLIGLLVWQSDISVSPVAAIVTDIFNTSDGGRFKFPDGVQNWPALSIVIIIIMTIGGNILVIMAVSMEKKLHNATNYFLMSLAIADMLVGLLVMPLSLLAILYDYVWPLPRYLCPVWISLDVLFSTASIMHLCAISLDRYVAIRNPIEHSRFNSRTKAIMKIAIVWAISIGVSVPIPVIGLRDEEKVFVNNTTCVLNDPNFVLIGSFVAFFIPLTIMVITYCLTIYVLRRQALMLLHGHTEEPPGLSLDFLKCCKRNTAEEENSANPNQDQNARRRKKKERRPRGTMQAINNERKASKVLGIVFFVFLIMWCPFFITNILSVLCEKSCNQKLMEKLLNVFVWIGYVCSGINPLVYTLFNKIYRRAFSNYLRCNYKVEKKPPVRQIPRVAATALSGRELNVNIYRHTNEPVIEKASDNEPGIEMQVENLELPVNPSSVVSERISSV

Test [5] addresses Translocator protein (Homo sapiens) (UniProt P30536).
Test [6] concerns the target 5-hydroxytryptamine receptor 1E (Homo sapiens) (UniProt P28566).
Test [7] concerns the target D(3) dopamine receptor (Homo sapiens) (UniProt P35462).
The target of test [8] is 5-hydroxytryptamine receptor 2B (Homo sapiens) (UniProt P41595).
Chain of 5-hydroxytryptamine receptor 2B (Homo sapiens) (P41595 whole entry): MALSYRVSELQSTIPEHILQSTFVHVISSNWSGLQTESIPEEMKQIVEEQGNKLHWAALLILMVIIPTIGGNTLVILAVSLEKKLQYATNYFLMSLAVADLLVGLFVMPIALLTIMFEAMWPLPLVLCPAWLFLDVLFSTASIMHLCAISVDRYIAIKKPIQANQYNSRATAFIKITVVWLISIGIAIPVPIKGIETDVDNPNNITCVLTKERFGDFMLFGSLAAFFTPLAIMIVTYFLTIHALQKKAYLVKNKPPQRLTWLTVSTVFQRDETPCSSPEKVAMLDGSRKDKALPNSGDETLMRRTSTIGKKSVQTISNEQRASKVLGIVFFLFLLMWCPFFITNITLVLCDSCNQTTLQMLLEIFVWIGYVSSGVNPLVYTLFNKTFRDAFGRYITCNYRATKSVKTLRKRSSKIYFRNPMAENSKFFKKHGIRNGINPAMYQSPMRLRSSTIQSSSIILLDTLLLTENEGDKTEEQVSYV
For test [9], the target named is T2, 5-hydroxytryptamine receptor 1A (Homo sapiens) (UniProt P08908).
T2 sequence (whole entry): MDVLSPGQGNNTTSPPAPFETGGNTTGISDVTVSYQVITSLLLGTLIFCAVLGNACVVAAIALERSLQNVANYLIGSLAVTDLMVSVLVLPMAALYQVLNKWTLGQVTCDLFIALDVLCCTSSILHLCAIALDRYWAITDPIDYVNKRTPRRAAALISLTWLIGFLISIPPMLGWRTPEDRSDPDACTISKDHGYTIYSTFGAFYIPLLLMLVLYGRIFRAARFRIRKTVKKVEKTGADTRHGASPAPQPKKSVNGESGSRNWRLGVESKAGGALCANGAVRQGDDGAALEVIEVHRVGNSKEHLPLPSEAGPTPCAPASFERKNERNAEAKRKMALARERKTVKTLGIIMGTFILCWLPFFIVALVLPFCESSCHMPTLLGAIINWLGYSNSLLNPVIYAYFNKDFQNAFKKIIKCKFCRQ

The target in test [10] is Kappa-type opioid receptor (Homo sapiens) (UniProt P41145).
Chain of Kappa-type opioid receptor (Homo sapiens) (P41145 whole entry): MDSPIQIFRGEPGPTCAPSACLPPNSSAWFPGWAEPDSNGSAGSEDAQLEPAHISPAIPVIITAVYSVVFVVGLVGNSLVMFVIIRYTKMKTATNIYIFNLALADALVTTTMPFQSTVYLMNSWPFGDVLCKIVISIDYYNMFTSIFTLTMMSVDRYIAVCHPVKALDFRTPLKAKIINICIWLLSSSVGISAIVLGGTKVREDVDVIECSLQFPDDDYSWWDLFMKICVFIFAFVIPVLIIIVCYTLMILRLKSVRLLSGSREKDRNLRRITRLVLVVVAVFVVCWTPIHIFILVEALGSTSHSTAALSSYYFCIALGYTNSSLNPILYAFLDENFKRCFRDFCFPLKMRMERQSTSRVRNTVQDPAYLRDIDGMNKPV
For test [11], the target named is T3, Alpha-2C adrenergic receptor (Homo sapiens) (UniProt P18825).
T3 sequence (whole entry): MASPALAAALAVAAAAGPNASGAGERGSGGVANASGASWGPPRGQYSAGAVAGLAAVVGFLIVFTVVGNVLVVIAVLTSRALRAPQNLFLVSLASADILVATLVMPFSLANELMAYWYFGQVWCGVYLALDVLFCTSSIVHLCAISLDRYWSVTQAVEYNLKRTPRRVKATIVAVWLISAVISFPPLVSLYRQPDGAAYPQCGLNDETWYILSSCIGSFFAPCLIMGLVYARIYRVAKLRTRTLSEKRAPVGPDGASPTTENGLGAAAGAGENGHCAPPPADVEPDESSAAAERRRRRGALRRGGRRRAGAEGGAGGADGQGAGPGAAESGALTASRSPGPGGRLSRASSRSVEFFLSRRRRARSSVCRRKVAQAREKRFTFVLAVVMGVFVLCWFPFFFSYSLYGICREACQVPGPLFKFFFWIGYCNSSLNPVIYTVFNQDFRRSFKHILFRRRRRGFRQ

In test [12] the target is T4, 5-hydroxytryptamine receptor 3A (Homo sapiens) (UniProt P46098).
T4 sequence (whole entry): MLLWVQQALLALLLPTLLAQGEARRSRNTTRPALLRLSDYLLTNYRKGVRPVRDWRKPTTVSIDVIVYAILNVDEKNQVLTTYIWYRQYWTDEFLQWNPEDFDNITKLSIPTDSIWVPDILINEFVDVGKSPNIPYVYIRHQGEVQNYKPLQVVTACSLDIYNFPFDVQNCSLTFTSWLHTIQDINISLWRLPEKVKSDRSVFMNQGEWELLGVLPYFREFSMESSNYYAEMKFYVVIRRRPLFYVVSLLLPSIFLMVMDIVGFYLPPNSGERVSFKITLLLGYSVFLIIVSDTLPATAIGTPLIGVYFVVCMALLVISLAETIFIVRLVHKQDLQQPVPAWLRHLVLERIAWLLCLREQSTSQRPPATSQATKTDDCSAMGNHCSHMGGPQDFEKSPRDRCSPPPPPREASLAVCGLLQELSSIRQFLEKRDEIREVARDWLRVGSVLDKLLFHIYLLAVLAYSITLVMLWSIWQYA

The target of test [13] is 5-hydroxytryptamine receptor 5A (Homo sapiens) (UniProt P47898).
Chain of 5-hydroxytryptamine receptor 5A (Homo sapiens) (P47898 whole entry): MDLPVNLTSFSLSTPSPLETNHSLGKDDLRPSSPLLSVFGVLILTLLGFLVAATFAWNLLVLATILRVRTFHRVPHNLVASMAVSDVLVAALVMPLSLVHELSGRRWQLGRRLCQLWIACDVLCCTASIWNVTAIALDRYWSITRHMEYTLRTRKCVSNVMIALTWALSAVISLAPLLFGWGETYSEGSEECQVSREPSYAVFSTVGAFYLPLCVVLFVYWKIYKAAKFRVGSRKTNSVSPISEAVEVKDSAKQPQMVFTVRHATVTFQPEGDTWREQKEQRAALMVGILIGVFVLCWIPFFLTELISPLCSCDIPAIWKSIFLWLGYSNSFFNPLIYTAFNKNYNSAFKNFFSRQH
In test [14] the target is T5, D(4) dopamine receptor (Homo sapiens) (UniProt P21917).
T5 sequence (whole entry): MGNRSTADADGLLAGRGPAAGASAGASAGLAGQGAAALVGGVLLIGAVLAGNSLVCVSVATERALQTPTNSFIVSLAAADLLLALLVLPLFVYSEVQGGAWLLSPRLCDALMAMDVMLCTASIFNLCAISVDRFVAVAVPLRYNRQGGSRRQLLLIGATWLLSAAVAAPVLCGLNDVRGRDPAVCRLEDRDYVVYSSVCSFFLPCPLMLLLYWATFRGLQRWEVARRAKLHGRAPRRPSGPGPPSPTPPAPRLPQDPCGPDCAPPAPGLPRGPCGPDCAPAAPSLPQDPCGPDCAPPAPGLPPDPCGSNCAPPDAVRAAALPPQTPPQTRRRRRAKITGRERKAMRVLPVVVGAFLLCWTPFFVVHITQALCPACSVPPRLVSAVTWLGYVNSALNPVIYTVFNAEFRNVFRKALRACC

Test [15] addresses Histamine H4 receptor (Homo sapiens) (UniProt Q9H3N8).
Test [16] deals with 5-hydroxytryptamine receptor 2A (Homo sapiens) (UniProt P28223).
Chain of 5-hydroxytryptamine receptor 2A (Homo sapiens) (P28223 whole entry): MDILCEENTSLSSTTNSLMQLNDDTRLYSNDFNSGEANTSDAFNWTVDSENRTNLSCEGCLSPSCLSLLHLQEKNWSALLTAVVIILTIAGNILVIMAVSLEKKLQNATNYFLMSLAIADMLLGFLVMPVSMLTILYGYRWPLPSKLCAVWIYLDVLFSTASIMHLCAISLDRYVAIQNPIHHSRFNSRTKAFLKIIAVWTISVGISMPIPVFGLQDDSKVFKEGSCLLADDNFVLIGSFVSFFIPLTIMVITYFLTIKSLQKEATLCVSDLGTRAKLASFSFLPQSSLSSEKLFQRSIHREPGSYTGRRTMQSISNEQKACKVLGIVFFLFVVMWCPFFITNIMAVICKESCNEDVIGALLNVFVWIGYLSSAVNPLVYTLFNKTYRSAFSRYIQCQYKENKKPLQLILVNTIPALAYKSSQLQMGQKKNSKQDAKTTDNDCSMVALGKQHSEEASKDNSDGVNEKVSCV

Chain of Beta-2 adrenergic receptor (Homo sapiens) (P07550 whole entry, looked up): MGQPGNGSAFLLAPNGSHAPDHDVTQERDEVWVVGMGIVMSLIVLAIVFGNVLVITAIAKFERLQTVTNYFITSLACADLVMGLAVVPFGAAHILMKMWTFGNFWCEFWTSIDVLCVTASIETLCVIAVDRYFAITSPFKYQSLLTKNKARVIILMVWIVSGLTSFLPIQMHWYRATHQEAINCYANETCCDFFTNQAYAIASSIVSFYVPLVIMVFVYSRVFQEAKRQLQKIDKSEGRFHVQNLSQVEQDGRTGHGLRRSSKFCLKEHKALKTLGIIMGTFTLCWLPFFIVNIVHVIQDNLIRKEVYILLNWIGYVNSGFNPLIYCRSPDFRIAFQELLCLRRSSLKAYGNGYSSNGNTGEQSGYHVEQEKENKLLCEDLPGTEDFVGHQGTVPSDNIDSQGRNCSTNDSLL
Chain of Histamine H4 receptor (Homo sapiens) (Q9H3N8 whole entry): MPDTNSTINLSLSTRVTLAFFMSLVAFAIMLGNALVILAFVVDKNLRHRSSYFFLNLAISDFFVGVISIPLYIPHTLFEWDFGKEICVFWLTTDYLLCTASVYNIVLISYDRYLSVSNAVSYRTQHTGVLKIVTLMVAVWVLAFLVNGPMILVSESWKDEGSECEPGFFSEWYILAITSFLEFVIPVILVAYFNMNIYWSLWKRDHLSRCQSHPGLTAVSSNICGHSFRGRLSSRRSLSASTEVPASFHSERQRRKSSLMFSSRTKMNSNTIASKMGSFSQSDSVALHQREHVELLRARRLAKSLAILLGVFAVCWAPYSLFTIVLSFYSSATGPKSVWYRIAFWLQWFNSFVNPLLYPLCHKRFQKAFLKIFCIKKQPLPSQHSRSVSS
Chain of Histamine H1 receptor (Homo sapiens) (P35367 whole entry): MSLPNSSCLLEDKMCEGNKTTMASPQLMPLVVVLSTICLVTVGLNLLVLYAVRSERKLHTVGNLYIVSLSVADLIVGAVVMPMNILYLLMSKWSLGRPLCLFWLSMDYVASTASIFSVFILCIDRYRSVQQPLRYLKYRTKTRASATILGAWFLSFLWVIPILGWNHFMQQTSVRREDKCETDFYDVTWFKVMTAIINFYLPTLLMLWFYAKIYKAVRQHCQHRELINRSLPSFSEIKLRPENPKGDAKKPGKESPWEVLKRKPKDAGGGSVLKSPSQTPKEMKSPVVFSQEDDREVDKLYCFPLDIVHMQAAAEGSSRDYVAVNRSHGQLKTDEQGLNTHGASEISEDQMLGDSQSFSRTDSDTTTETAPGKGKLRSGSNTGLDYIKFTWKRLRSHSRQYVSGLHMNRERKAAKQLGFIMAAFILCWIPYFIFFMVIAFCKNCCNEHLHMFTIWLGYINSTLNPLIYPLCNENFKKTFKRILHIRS
Chain of 5-hydroxytryptamine receptor 1E (Homo sapiens) (P28566 whole entry): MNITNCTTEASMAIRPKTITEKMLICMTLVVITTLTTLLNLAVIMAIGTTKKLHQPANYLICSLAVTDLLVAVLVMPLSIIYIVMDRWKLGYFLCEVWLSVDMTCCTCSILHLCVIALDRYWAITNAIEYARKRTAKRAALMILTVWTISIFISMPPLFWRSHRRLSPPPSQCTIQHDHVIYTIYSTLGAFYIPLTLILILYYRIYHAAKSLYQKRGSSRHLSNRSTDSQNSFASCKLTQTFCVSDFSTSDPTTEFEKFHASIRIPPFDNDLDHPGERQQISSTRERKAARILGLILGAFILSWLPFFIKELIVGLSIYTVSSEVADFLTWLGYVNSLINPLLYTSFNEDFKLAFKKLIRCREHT
Chain of Sigma intracellular receptor 2 (Homo sapiens) (Q5BJF2 whole entry): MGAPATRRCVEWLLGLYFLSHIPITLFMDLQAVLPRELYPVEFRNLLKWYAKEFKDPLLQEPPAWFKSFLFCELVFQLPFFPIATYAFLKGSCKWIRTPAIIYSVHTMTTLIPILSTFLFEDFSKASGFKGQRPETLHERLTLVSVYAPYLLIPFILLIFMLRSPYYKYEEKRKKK
Chain of D(3) dopamine receptor (Homo sapiens) (P35462 whole entry): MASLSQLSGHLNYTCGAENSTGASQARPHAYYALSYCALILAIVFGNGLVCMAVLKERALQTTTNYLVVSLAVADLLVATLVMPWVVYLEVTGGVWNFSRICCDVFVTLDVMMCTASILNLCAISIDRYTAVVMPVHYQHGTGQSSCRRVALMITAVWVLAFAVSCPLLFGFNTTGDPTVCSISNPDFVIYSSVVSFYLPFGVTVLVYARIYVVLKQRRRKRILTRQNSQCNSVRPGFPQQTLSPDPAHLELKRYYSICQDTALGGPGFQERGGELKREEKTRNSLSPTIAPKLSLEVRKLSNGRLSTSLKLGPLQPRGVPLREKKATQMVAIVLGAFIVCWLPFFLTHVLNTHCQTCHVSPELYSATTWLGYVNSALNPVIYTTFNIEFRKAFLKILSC
Chain of Translocator protein (Homo sapiens) (P30536 whole entry): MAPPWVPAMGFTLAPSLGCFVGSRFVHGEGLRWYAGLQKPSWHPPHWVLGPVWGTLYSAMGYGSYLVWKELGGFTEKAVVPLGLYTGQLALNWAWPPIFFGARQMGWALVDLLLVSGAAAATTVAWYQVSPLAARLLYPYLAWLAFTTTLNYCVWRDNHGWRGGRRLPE

The term inhibition denotes the drop in the measured response relative to a control, in per cent. For `O=C(O)C1CN(Cc2ccc(-c3nc4cc(Cc5ccccc5F)ccc4s3)c(F)c2)C1`, the inhibition in test [1] was 66.8%; in test [2], 19.1%; in test [3] it was 37.5%; in test [4], 35.8%; in [5] it was 22.3%; in test [6] it was 31.1%. The inhibition in test [7] was 91%; in [8], -9.46%; in test [9], 11.5%; in test [10], 0.93%; in test [11], 20.6%; in [12], -3.55%. The inhibition is 7.19% in test [13], -6.1% in test [14], -0.17% in [15] and 9.17% in [16].
Turning to `CCc1nn(CCCN2CCN(c3cccc(Cl)c3)CC2)c(=O)n1CCOc1ccccc1`, the inhibition in [1] was -0.82%; in [2] it was 91.7%; in test [3], 94.5%; in test [4] it was 102%; in [5], 64.2%; in test [6] it was -4.17%. The inhibition in test [7] was 86.1%; in test [8], 79.6%; in [9], 42.6%; in test [10] it was 49.2%; in test [11], 95.3%; in [12] it was 3.68%. For the same compound, the inhibition in test [13] is 73.3%; in test [14] it was 89.3%; in [15] it was 5.27%; in test [16], 82%.
For `COc1ccc(NC(=O)c2ccc(-c3ccc(-c4noc(C)n4)cc3C)cc2)cc1OCCN(C)C`, the inhibition in test [1] is 13.1%; in test [2], 84.2%; in [3], 22.1%; in test [4] it was 98.3%; in test [5], 31.1%; in test [6], 52.5%. For the same compound, the inhibition is 33.1% in test [7]; 90.6% in test [8]; 32.1% in test [9]; 44% in test [10]; 79% in test [11]; 5.18% in test [12]. The inhibition in test [13] was 65.6%; in [14], 45.4%; in test [15], 49%; in test [16] it was 95.4%.
On to `Cc1cn2cc(CC(=O)N3CCC4(CC3)CN(Cc3ccc(-n5nccn5)cc3Cl)C4)nc2s1`, for which the inhibition is 67.1% in [1]; 43.3% in test [2]; 30.4% in test [3]; -3.75% in test [4]; 0.99% in test [5]; -2.62% in test [6]. In addition, the inhibition was 71.1% in test [7]; 19.4% in test [8]; 13% in test [9]; 35.7% in [10]; 35.9% in test [11]; 1.22% in [12]. Besides, the inhibition is 8.61% in test [13], 50.6% in test [14], -5.48% in test [15] and -2.36% in test [16].
As for `Cc1cc(C)cc(-c2cnc3cc(Cl)c(-c4cccc(O)c4)cc3c2OCCCN)c1`, the inhibition in [1] is 92.8%; in [2] it was 94.9%; in test [3], 98.8%; in [4] it was 79.8%; in test [5], 79.5%; in [6], 54.4%. Besides, the inhibition is 95.9% in [7]; 88.6% in [8]; 64.1% in test [9]; 60.7% in test [10]; 68% in [11]; 43.9% in test [12]. The inhibition in [13] is 96.4%; in test [14], 32.1%; in [15], 68.2%; in test [16], 63.2%.
As to `O=c1ccc2ccc(OCCCCN3CCN(c4cccc5sccc45)CC3)cc2[nH]1`, the inhibition was 78.8% in test [1]; 95.6% in test [2]; 100% in [3]; 103% in [4]; -2.98% in test [5]; 92.3% in test [6]. Moreover, the inhibition in test [7] is 100%; in test [8] it was 96%; in [9] it was 103%; in [10], 13.9%; in test [11] it was 104%; in [12] it was 81.9%. Further, the inhibition in [13] is 93.1%; in test [14], 101%; in test [15] it was 8%; in test [16] it was 97.1%.
With `CN(C)C(=O)N[C@H]1CC[C@H](CCN2CCN(c3cccc(Cl)c3Cl)CC2)CC1`, the inhibition in [1] is 31.6%; in [2] it was 88.3%; in [3], 98.7%; in test [4], 97.3%; in test [5], 29%; in test [6] it was 48%. Moreover, the inhibition is 99% in [8]; 102% in test [9]; 5.62% in [10]; 98% in test [11]; 6.73% in test [12]; 69.8% in test [13]. In addition, the inhibition is 103% in test [14], 2.57% in [15] and 110% in [16].
Take `COc1ccccc1N1CCN(CCCCNC(=O)c2ccc3ccccc3c2)CC1`: the inhibition is 38.9% in [1]; 96.4% in test [2]; 97% in test [3]; 97.9% in test [4]; 78.8% in test [5]; 27.8% in test [6]. In addition, the inhibition in test [8] is 97%; in [9], 108%; in test [10], 35.6%; in test [11], 111%; in [12] it was 0.02%; in test [13], 76.4%. The inhibition in [14] was 95.1%; in [15], 8.79%; in [16] it was -1.42%.
